Measured values from patent publication US7998940B2, “Aptamers to von Willebrand factor and their use as thrombotic disease therapeutics” (Archemix Corp., priority 2004, dated 2011).
“Also recorded” adds a separate entry of the source. [invdT] = inverted (3'-3') thymidine; d = 2'-deoxy (DNA); m = 2'-O-methyl

Experiments:
[1] = cutaneous bleeding time (CBT) in cynomolgus macaques; assay type: in vivo; conditions: in words
Procedure: (§1) Following IV administration, blood was collected percutaneously at various time points post-dose for PK and PD analysis. PD effect of ARC1779 on platelet function was determined by PFA-100 assays and effect of ARC1779 on bleeding was measured by CBT time. In addition, plasma samples were analyzed by HPLC for quantitation of ARC1779 levels. PK parameter estimates were determined by 2-compartment analysis.
(§2) C. macaques were dosed at 0.5 mg/kg IV bolus with ARC1779 (SEQ ID NO 320). PFA-100 closure time, BIPA and cutaneous bleeding time (“CBT”) were all measured as a function of time throughout the studies. BIPA and PFA-100 closure times were measured as described in previously in Example 3. Cutaneous bleeding times were measured using standard protocols described as follows.
A blood pressure cuff was applied to the biceps region of the forearm to be tested and inflated to maintain a constant pressure of 40 mmHg. Using a Surgicutt® Automated Incision Device (ITC, Edison, N.J.), a longitudinal incision was made over the lateral aspect of the volar surface of the forearm distal to the antecubital crease. A stopwatch was started at the time of incision. […] Bleeding time is determined to within 30 seconds of the time when blood is no longer wicked onto the paper. […]

platelet function = experiment: ex vivo PFA-100 platelet function after 0.5 mg/kg IV bolus in cynomolgus macaques; conditions: 0.5 mg/kg single IV bolus
Procedure: as §1, §2

[2] = pharmacokinetics of ARC1779 after 0.5 mg/kg IV bolus in cynomolgus macaques (HPLC); assay type: in vivo; conditions: 0.5 mg/kg single IV bolus, 2-compartment analysis
Procedure: -PK/PD correlation of ARC1779 was evaluated in three cynomolgus macaques after a single intravenous (IV) bolus dose at 0.5 mg/kg. ARC1779 levels in the plasma were correlated to PD effects of ARC1779 in inhibition of platelet function or prolongation of cutaneous bleeding time (CBT).
as §1

[3] = system: vWF dependent platelet plug formation, cynomolgus whole blood; experiment: PFA-100 assay, cynomolgus macaque whole blood; assay type: cell-based, cynomolgus macaques; conditions: minimum concentration that extends closing time to 300 seconds
Excerpt: Another assay of this Example, using the PFA-100 instrument, is an agonist independent but vWF dependent assay that uses the PFA-100 instrument (Harrison et al., Clin. Lab. Haem., v24, p 225-32 (2002)). The PFA-100 simulates the formation of a hemostatic plug under conditions of high shear force in vivo by recording the time required for a platelets to aggregate and block the flow of citrated whole blood through a microscopic aperture in a membrane coated with collagen and either epinephrine or ADP. This activity is von Willebrand factor dependent as high MW vWF multimers bind to immobilized collagen on the membrane and then bind to and activate platelets because of the shear force induced by drawing the blood through the microscopic aperture.
Fresh whole blood was collected from healthy non-steroidal anti-inflammatory drug (NSAID) free cynomolgus macaques. […]
In order to assay the titration of aptamer in whole blood, the aptamer was added to no-additive vacutainer tubes and diluted to the desired concentrations (ex: 0 nM, 1 nM to 1000 nM) using physiological saline such that the final volume was […]. When the PFA-100 was ready to run the next set of samples, 1940 μl of whole blood was added to the tube containing a concentration of aptamer. […] The time of occlusion of the aperture was measured by the PFA-100, with a maximal time of 300 seconds. […]

[4] = system: ADP induced platelet aggregation; experiment: ADP Induced Platelet Aggregation (AIPA) in human PRP; assay type: cell-based; conditions: in words, 10 micromolar ADP
Procedure: Another assay of this Example used ADP to induce platelet aggregation.
AIPA was performed with human PRP exactly as was done for BIPA described above in Example 3C with the exception that instead of adding botrocetin, 10 micromolar ADP (Chronolog, Haverton, Pa.) was added to induce platelet aggregation.

vWF = vWF (Homo sapiens, UniProt P04275, D1472H/Q852R/T1381A); experiment: cellular / biological vWF dependent assays of Example 3, not specified further; assay type: cell-based; conditions: in words; FACS, BIPA (and PFA-100) assays of Example 3
vWF, sequence (P04275 764-2813 Q852R/T1381A/D1472H): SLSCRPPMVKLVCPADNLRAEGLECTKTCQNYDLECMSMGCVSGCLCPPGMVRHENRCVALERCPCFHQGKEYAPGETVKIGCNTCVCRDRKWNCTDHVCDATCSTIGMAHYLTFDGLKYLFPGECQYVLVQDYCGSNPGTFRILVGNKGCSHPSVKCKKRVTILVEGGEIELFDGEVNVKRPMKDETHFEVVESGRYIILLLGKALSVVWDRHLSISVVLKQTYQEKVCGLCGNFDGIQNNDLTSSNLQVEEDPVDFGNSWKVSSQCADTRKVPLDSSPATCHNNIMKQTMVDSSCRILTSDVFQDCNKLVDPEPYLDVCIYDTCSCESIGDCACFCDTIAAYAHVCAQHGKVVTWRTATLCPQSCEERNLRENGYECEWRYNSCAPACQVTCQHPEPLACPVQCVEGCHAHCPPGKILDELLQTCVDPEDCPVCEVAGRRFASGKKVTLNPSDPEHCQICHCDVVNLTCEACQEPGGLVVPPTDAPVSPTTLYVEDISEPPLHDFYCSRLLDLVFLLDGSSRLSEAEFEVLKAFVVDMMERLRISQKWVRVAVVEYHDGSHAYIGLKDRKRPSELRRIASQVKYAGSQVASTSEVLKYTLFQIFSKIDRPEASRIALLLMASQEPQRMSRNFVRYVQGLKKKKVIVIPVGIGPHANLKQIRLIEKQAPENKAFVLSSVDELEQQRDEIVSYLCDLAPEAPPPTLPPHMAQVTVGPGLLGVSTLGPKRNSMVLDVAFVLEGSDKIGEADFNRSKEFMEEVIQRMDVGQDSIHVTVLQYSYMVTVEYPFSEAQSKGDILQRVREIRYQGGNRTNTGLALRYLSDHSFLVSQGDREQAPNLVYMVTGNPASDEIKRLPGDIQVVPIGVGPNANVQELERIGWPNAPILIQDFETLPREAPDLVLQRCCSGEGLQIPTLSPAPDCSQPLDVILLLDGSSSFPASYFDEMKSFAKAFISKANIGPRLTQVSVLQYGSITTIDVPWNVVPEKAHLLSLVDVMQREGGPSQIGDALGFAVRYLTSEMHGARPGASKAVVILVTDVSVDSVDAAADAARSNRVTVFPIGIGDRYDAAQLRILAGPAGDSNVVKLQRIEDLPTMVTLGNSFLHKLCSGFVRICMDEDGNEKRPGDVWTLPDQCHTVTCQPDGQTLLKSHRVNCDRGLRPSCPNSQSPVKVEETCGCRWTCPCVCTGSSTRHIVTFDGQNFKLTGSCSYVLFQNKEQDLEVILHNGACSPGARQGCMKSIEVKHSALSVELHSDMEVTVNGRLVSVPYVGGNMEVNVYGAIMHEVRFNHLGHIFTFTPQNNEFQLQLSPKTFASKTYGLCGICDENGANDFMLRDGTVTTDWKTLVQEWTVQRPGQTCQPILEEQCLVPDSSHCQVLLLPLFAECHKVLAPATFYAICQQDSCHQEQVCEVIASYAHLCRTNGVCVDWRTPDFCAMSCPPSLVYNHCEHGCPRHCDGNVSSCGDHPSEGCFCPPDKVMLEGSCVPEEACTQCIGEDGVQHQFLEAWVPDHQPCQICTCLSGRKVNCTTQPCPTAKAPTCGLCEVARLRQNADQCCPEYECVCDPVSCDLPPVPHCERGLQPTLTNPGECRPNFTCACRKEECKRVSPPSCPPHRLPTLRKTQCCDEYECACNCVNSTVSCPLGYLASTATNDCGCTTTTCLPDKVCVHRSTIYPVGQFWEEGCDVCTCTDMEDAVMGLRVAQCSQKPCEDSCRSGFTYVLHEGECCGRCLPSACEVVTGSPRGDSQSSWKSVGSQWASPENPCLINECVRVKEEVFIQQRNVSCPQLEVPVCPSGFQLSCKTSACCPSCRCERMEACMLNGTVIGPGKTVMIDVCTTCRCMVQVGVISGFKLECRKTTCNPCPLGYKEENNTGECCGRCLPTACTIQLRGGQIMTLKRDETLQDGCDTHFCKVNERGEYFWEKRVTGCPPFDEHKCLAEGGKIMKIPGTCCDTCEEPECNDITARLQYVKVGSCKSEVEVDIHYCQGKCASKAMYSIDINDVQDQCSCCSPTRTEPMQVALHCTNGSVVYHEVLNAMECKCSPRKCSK
Excerpt: The effectiveness of various aptamers in blocking vWF function in several biological assays is described in this Example.
In one assay botrocetin is used. Botrocetin, a protein isolated from snake venom, is known to induce von Willebrand Factor binding to the gpib receptor on live and fixed platelets. This reaction causes agglutination of suspensions of fixed platelets via vWF multimerization. In preparations of platelet rich plasma (hereinafter “PRP”), vWF/botrocetin induction of agglutination is followed by a second phase of platelet aggregation caused by metabolic activation of the platelets. These two reactions: vWF binding to fixed platelets and vWF mediated platelet aggregation, can be used to measure the activity of aptamers of the invention.

PEG20K-NH2-mGmCmGmUdGdCdAmGmUmGmCmCmUmUmCmGmGmCdCmG-s-TmGdCdGdGTmGmCdCmUdCdCmGmUdCmAmCmGmC-3T [ARC1779]
effect on cutaneous bleeding time ([1]; 0.5 mg/kg single IV bolus, 0.5 mg/kg): minimal effect; also recorded: very little increase
cutaneous bleeding time in the electrolytic thrombosis model ([1]; FIG. 34, various doses and time points): at some doses and/or time points in this animal model prolonged CBT was observed, while at other doses and time points CBT was not prolonged
plasma concentration at which platelet function returned to normal (PFA-100) (platelet function): approximately 77 nM
distribution half-life (t1/2α) [2]: approximately 1.0 hour

mGmCmGmUdGdCdAmGmUmGmCmCmUmUmCmGmGmCdCmG-s-TmGdCdGdGTmGmCdCmUdCdCmGmUdCmAmCmGmC-3T (GCGUGCAGUGCCUUCGGCCGTGCGGTGCCUCCGUCACGC; sugars from the 5' end mmmmdddmmmmmmmmmmmdmdmddddmmdmddmmdmmmm, [invdT] at 3' end, backbone not given here) [ARC1368]
~IC95 PFA-100 (nM) with citrated C. macaque whole blood [3]: ~100 nM
ability to block AIPA [4]: no ability to block AIPA

B1: AMX237.G6: DNA SELEX 2 aptamer clone (nucleic acid)
DNA: CTACCTACGATCTGACTAGCGTGCAGTGCCTATTCCAGGCCGTGCGGTGCCTCCGTCACGCTTACTCTCATGTAGTTCC
modifications: DNA, backbone and methylation of C not given here
notes: DNA SELEX 2 aptamer clone
activity in the cellular / biological assays (vWF): slightly more potent
